Laboratory results from ChEMBL document CHEMBL1124578, “A potent, tissue-selective, synthetic inhibitor of HMG-CoA reductase” (J Med Chem, 1989).
One block for each compound: values may come before it.

Key:
[1] = tested on: HMG-CoA reductase (Rattus norvegicus); assay: In vitro inhibition of rat liver microsomal HMG-CoA reductase activity; No Activity
[2] = Ratio of the mean IC50 for sterol-synthesis inhibition of spleen relative to hepatocytes in rat; assay type: functional, Hepatocyte
[3] = Ratio of the mean IC50 for sterol-synthesis inhibition of adrenal relative to hepatocytes in rat; assay type: functional, Hepatocyte
[4] = Ratio of the mean IC50 for sterol-synthesis inhibition of testes relative to hepatocytes in rat; assay type: functional, Hepatocyte
[5] = Ratio of the mean IC50 for sterol-synthesis inhibition of hepatocytes relative to hepatocytes in rat; assay type: functional, Hepatocyte

IC50 [1]: Not Active
Structure (SMILES): Cn1nnnc1C(/C=C/[C@H]1C[C@H](O)CC(=O)O1)=C(c1ccc(F)cc1)c1ccc(F)cc1

Structure (SMILES): CC[C@H](C)C(=O)O[C@H]1C[C@@H](C)C=C2C=C[C@H](C)[C@H](CC[C@@H]3C[C@@H](O)CC(=O)O3)[C@H]21 [LOVASTATIN]
Ratio [2]: 1.2
Ratio [3]: 1
Ratio [4]: 1.3
Ratio [5]: 1

Structure (SMILES): Cn1nnnc1C(/C=C/[C@@H]1C[C@@H](O)CC(=O)O1)=C(c1ccc(F)cc1)c1ccc(F)cc1
Ratio [2]: 149
Ratio [3]: 76
Ratio [4]: 86
Ratio [5]: 1
